Results from PubChem BioAssay (NCI).
Several values for one entry are separate records, joined by “and”; a condition that tells them apart may be missing. Identical values can stand only once.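 Test compounds were applied to cells in 96-well plates for 48 hours at 5 doses. Here, GI50 denotes the concentration required for 50% inhibition of growth. TGI: total growth inhibition.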

Experiments:
Test in all cases: growth of human tumour cells (NCI), 48 h
[1] = system: UACC-62 melanoma
[2] = system: EKVX NSCLC
[3] = system: LOX IMVI melanoma
[4] = system: HCT-15 colon
[5] = system: MALME-3M melanoma
[6] = system: SK-OV-3 ovarian
[7] = system: MOLT-4 leukemia
[8] = system: TK-10 renal
[9] = system: HL-60(TB) leukemia
[10] = system: RXF 393 renal

Row | Compound | TGI [1] | TGI [2] | TGI [3] | TGI [4] | TGI [5] | TGI [6] | TGI [7] | TGI [8] | TGI [9] | TGI [10] | GI50 [1] | GI50 [2] | GI50 [3] | GI50 [4] | GI50 [5] | GI50 [6] | GI50 [7] | GI50 [8] | GI50 [9] | GI50 [10]
1 | COc1cccc2c1C1=CC(=O)CCC1C(C)(C)O2 (stereo not given) | > 100 µM | > 100 µM | > 100 µM | > 100 µM | > 100 µM | > 100 µM | > 100 µM | > 100 µM | > 100 µM | > 100 µM | – | – | – | – | – | – | – | – | – | –
2 | O=[N+]([O-])/C=C\c1ccc2c(c1)OCO2 | 31.8 µM | 34.9 µM | 4.15 µM | 6.68 µM | 32.9 µM | 24.4 µM | 67.7 µM | 10 µM | 46.5 µM | 3.1 µM | 15.3 µM | 14.4 µM | 1.83 µM | 2.46 µM | 14.6 µM | 12.1 µM | 17.6 µM | 3.16 µM | 10.2 µM | 1.66 µM
3 | CCc1ccc(C2=C(O)C(=O)C(c3ccc(CC)cc3)=C(O)C2=O)cc1 | 3.63 µM | 8.64 µM | 12.1 µM | 7.5 µM | 5.4 µM | 5.66 µM | 4.15 µM | 8.61 µM | 6.24 µM | 12.8 µM | 1.64 µM | 2.35 µM | 2.84 µM | 2.23 µM | 1.28 µM | 2.05 µM | 1.81 µM | 2.26 µM | 2.6 µM | 3.34 µM
4 | Nc1ccc2c(c1)[O][Sn]([c]1ccccc1)([c]1ccccc1)[O]C2=O | 16.3 µM | 25 µM | 11.5 µM | 17.9 µM | 8.22 µM | 43.8 µM | 29.7 µM | 15.6 µM | 10.4 µM | 6.09 µM | 5.94 µM | 10.6 µM | 3.57 µM | 6.8 µM | 3.18 µM | 14.7 µM | 5.01 µM | 7.34 µM | 2.64 µM | 2.06 µM
5 | OC1CCC(Oc2cccc3cnc(Nc4ccc5nc[nH]c5c4)nc23)CC1 (stereo not given) | 7.26 µM | 10.8 µM | 11.4 µM | 16.7 µM | 5.01 µM | 47.8 µM | 0.636 µM | 11.4 µM | 0.447 µM | 0.504 µM | 0.573 µM | 0.487 µM | 0.231 µM | 0.508 µM | 1.03 µM | 3.35 µM | 0.157 µM | 0.296 µM | 0.155 µM | 0.208 µM
6 | Cc1cc(O)cc(C)c1/C=C/c1cncc(C(=O)N(C)C)c1 | > 25 µM | > 25 µM | > 25 µM | > 25 µM | > 25 µM | > 25 µM | > 25 µM | > 25 µM | > 25 µM | > 25 µM | > 25 µM | > 25 µM | > 25 µM | > 25 µM | > 25 µM | > 25 µM | > 25 µM | > 25 µM | > 25 µM | > 25 µM
7 | N#C/C(=C(\O)C(=O)O)c1ccc(-c2cccc3ccccc23)cc1 | > 100 µM | > 100 µM | > 100 µM | > 100 µM | > 100 µM | > 100 µM | 12.2 µM | > 100 µM | 81.9 µM | > 100 µM | – | – | – | – | – | – | – | – | – | –
8 | CCOC(OC1=C(C#N)CCC1)C(CC)[Se]c1ccccc1 (stereo not given) | 61.9 µM | 89 µM | 17.7 µM | > 100 µM | 66.7 µM | > 100 µM | 48.8 µM | > 100 µM | 38.4 µM | 38.7 µM | – | – | – | – | – | – | – | – | – | –
9 | O=c1oc2c3ccc4ccccc4c3n(Cc3nc4ccccc4[nH]3)c2c2ccccc12 | > 100 µM | > 31.6 µM | > 100 µM | > 100 µM | > 100 µM | > 100 µM | > 100 µM | > 100 µM | 20 µM | > 100 µM | – | – | – | – | – | – | – | – | – | –
10 | Cn1nnnc1[N-]Cc1ccccc1.[Au+].c1ccc([PH+](c2ccccc2)c2ccccc2)cc1 | 7.12 µM | 5.78 µM | 8.55 µM | 9.18 µM | 3.39 µM | 30.3 µM | 4.75 µM | 5.02 µM | 1.45 µM | 2.68 µM | 1.72 µM | 4.08 µM | 2.53 µM | 2.53 µM | 1.64 µM | 16.6 µM | 1.67 µM | 2.46 µM | 0.509 µM | 1.29 µM
11 | Cn1cnc([N+](=O)[O-])c1Sc1ncnc2nc[nH]c12 | > 100 µM | > 100 µM | > 100 µM | > 100 µM | > 100 µM | 39.6 µM and > 100 µM | > 100 µM | > 100 µM | 71 µM and > 64.7 µM | > 100 µM | 2.54 µM and 3.4 µM | 28.3 µM and > 100 µM | 1.11 µM and 1.63 µM | 14.2 µM and 19.6 µM | 4.22 µM and 34.9 µM | 0.471 µM and 0.867 µM | 8.77 µM and 6.68 µM | 3.58 µM and 3.93 µM | 11 µM and 16.9 µM | 35.2 µM
